Source: patent US8030341B2, “Dmt-derivative compounds and related compositions and methods of use” (priority 2005, dated 2011)
Where a name gives a salt, the structure may show the parent alone. Read-outs that look alike come from different tables or passages of the source.

Experiments:
[1] = molecular target: T1, δ-opioid receptor (Rattus norvegicus, UniProt P33533); test: opioid receptor binding competition assay, rat brain P2 synaptosomal membranes (δ)
T1 construct: from tissue; host or cells: rat brain P2 synaptosomal membranes (Sprague-Dawley)
Procedure: (§1) Synaptosomes were preincubated to remove endogenous opioids, washed in excess ice-cold buffer containing protease inhibitor and stored in a glycerol-containing buffer with protease inhibitor at −80° C. as described in Lazarus et al., J. Med. Chem. 34:1350-55 (1991). […] After incubation, the radiolabeled membranes were rapidly filtered on Whatman GF/C glass fiber filters presoaked in 0.1% polyethylenimine in order to optimize the signal-to-noise ratio, washed with ice-cold BSA buffer, and dried at 75-80° C. Radioactivity was determined using EcoLume (ICN, Costa Mesa, Calif.). All compounds were analyzed in duplicate using 5-8 peptide dosages and several synaptosomal preparations in independent repetitions to ensure statistical significance. The affinity constants (Ki) were calculated according to Cheng and Prusoff (Cheng et al., Biochem. Pharmacol., 22: 3099-3108 ([…])).

[2] = molecular target: μ-opioid receptor (Cavia porcellus, UniProt P97266); test: guinea pig ileum (GPI) bioassay; assay type: cell-based; conditions: for IC50: read-out: GPI agonist IC50; for GPI Antagonist pA2 (nM), value in parentheses (Ke): versus endomorphin-2, antilog of pA2; for GPI Antagonist pA2: versus endomorphin-2 as agonist
Procedure: The myenteric plexus longitudinal muscle preparations (2-3 cm segments) from the small intestine of male Hartley strain guinea pigs (GP1) measured μ-opioid receptor agonism and a single mouse vas deferens (MVD) was used to determine δ-opioid receptor agonism as described in Sasaki et al. Bioorg. […] The isolated tissues were suspended in organ baths containing balanced salt solutions in a physiological buffer, pH 7.5. Agonists were tested for the inhibition of electrically evoked contraction and expressed as IC50 (nM) obtained from the dose-response curves.

[3] = molecular target: T2, δ-opioid receptor (Mus musculus, UniProt P32300); test: mouse vas deferens (MVD) bioassay; assay type: cell-based; conditions: for IC50: read-out: MVD agonist IC50; for MVD Antagonist pA2: versus deltorphin II as agonist
T2 construct: from tissue; host or cells: isolated mouse vas deferens
Text: Bioorg. Med. Chem., 11: 675-678 (2003). The isolated tissues were suspended in organ baths containing balanced salt solutions in a physiological buffer, pH 7.5. […]

[4] = molecular target: T3, μ-opioid receptor (Rattus norvegicus, UniProt P33535); test: opioid receptor binding competition assay, rat brain P2 synaptosomal membranes (μ)
T3 construct: from tissue; host or cells: rat brain P2 synaptosomal membranes (Sprague-Dawley)
Procedure: as §1

[5] = Table 1, rat brain synaptosomes, footnote a: versus [3H]DAMGO, read-out: Ki(δ)
[6] = Table 2, inhibition of electrically evoked contraction
[7] = Table 2, versus deltorphin II, antilog of pA2
[8] = Table 1, rat brain synaptosomes, footnote b: versus [3H]DPDPE, read-out: Ki(μ)

T2 sequence (P32300 whole entry): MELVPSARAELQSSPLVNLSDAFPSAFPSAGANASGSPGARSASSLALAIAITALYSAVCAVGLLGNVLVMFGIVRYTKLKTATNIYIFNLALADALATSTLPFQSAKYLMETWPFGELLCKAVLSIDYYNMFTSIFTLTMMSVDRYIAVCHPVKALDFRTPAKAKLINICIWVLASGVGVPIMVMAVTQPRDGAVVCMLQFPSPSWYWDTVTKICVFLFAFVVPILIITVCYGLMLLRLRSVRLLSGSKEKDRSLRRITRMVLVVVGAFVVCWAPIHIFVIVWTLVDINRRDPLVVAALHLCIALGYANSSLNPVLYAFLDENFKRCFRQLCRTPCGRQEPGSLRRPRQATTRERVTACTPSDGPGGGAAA
T1 sequence (P33533 whole entry): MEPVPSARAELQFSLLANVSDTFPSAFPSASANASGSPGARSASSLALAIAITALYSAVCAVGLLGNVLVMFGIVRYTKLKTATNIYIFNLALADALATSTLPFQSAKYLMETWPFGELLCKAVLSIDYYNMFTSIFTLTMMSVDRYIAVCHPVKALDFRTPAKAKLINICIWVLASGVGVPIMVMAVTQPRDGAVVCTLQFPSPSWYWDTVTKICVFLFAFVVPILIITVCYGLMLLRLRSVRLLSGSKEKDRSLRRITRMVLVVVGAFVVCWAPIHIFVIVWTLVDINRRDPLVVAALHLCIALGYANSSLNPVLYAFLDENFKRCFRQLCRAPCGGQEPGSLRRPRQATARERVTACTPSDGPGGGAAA
T3 sequence (P33535 whole entry): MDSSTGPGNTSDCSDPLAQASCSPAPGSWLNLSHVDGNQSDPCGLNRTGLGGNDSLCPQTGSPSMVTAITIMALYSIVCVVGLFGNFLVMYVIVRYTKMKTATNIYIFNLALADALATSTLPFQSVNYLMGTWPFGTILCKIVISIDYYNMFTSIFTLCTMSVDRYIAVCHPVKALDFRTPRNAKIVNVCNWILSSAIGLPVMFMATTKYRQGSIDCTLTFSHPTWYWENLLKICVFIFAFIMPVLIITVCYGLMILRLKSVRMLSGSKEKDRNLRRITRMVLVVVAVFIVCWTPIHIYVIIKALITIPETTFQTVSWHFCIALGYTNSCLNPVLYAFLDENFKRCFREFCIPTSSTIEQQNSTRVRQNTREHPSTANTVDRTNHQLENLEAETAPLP
Chain of μ-opioid receptor (Cavia porcellus, UniProt P97266) (P97266 whole entry, looked up): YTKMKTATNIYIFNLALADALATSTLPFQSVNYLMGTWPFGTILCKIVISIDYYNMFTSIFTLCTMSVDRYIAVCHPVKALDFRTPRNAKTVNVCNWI

Row | Compound | Ki [1, 5] [nM] | Ki(μ)/Ki(δ) ([1]; Table 1, selectivity ratio) | IC50 [2, 6] [nM] | IC50 [3, 6] [nM] | MVD Antagonist pA2 ([3]; Table 2) | MVD Antagonist pA2 (nM), value in parentheses (Ke) [3, 7] [nM] | Ki [4, 8] [nM] | melting point | also measured
1 | 3,6-Bis(Dmt-Tic-NH-butyl)-2(1H)-pyrazinone [Compound 11] | 0.323 ± 0.007 | 5 | > 10000 | > 10000 | 11.06 | 0.0871 | 1.74 ± 0.14 | – | –
2 | 3,6-Bis(Dmt-Tic-NH-propyl)˜2(1H)-pyrazinone [Compound 10] | 0.155 ± 0.016 | 20 | 7020 ± 2470 | > 10000 | 10.56 | 0.0275 | 3.08 ± 0.17 | – | –
3 | 3-(Dmt-Tic-NH-butyl)-6-(Dmt-Tic-NH-propyl)-2(1H)-pyrazinone [Compound 13] | 0.092 ± 0.01 | 25 | > 10000 | > 10000 | 10.47 | 0.0339 | 2.28 ± 0.03 | – | GPI Antagonist pA2 (nM), value in parentheses (Ke) ([2]; Table 2): 112 nM; GPI Antagonist pA2 ([2]; Table 2): 6.95
4 | 3-(Dmt-Tic-NH-ethyl)-6-(Dmt-Tic-NH-butyl)-2(1H)-pyrazinone [Compound 14] | 0.107 ± 0.007 | 13 | > 10000 | > 10000 | 10.99 | 0.0102 | 1.37 ± 0.13 | – | –
5 | 3-(Dmt-Tic-NH-propyl)-6-(Dmt-Tic-NH-butyl)-2(1H)-pyrazinone [Compound 12] | 0.16 ± 0.025 | 10 | > 10000 | > 10000 | 10.60 | 0.0251 | 1.56 ± 0.11 | – | –
6 | Cc1cc(O)cc(C)c1CC(N)C(=O)N1Cc2ccccc2CC1C(=O)NCc1[nH]c(=O)c(CNC(=O)C2Cc3ccccc3CN2C(=O)C(N)Cc2c(C)cc(O)cc2C)nc1C (stereo not drawn) (as salt: HCl) [Compound 8] | – | – | – | – | – | – | – | 224 to 226 °C (dec.) | –
7 | Cc1cc(O)cc(C)c1CC(N)C(=O)N1Cc2ccccc2CC1C(=O)NCCCCNC(=O)C1Cc2ccccc2CN1C(=O)C(N)Cc1c(C)cc(O)cc1C (stereo not drawn) (as salt: HCl) [Compound 18, 1,4-Bis(Dmt-Tic-amino)butane] | – | – | – | – | – | – | – | 215 to 217 °C | –
8 | Cc1cc(O)cc(C)c1CC(N)C(=O)N1Cc2ccccc2CC1C(=O)NCCCCCCNC(=O)C1Cc2ccccc2CN1C(=O)C(N)Cc1c(C)cc(O)cc1C (stereo not drawn) (as salt: HCl) [Compound 19, 1,6-Bis(Dmt-Tic-amino)hexane] | – | – | – | – | – | – | – | 215 to 217 °C | –
9 | Cc1cc(O)cc(C)c1CC(N)C(=O)N1Cc2ccccc2CC1C(=O)NCCCCCCCCCCNC(=O)C1Cc2ccccc2CN1C(=O)C(N)Cc1c(C)cc(O)cc1C (stereo not drawn) (as salt: HCl) [Compound 20, 1,10-Bis(Drat-Tic-amino)decane] | – | – | – | – | – | – | – | 205 to 207 °C | –
10 | Cc1cc(O)cc(C)c1CC(C(=O)N1Cc2ccccc2CC1C(=O)NCCCCCCNC(=O)C1Cc2ccccc2CN1C(=O)C(Cc1c(C)cc(O)cc1C)N(C)C)N(C)C (stereo not drawn) (as salt: HCl) [Compound 21, 1,6-Bis(N,N-Dimethyl-Dmt-Tic-NH)-hexane] | – | – | – | – | – | – | – | 195 to 197 °C | –
11 | Cc1cc(O)cc(C)c1CC(N)C(=O)N1Cc2ccccc2CC1C(=O)NCc1[nH]c(=O)c(CNC(=O)C2Cc3ccccc3CN2C(=O)C(N)Cc2c(C)cc(O)cc2C)nc1C (stereo not drawn) [Compound 8] | – | – | – | – | – | – | – | – | Ki [1]: 0.163 ± 0.018 nM; Ki(μ)/Ki(δ) [1]: 23; IC50 [2]: > 10000 nM; MVD Antagonist pA2 (nM), value in parentheses (Ke) [3]: 11.22 (0.006) nM; IC50 [3]: > 10000 nM; Ki [4]: 3.76 ± 0.3 nM
12 | Cc1cc(O)cc(C)c1CC(N)C(=O)N1Cc2ccccc2CC1C(=O)NCCc1cnc(CCNC(=O)C2Cc3ccccc3CN2C(=O)C(N)Cc2c(C)cc(O)cc2C)c(=O)[nH]1 (stereo not drawn) [Compound 9, 3,6-Bis(Dmt-Tic-NH-ethyl)-2(1H)-pyrazinone] | 0.095 ± 0.0004 | 30 | > 10000 | > 10000 | 10.73 | 0.0186 | 2.83 ± 0.12 | – | GPI Antagonist pA2 (nM), value in parentheses (Ke) ([2]; Table 2): 165 nM; GPI Antagonist pA2 ([2]; Table 2): 6.78
